Measured values as given in paper PMC5598241 (Toxicology Reports, 2015).

What was measured:
Sprague Dawley (SD) rats [1] = experiment: Full blood count after drug administration; type: in vivo, rat; conditions: for thrombocytopenia (low platelet count): all test animals given PAR, GFJ and BGT = groups co-treated with PAR; for Full blood count Hb / Full blood count Hct / Full blood count MCH / Full blood count MCHC / Full blood count MCV / Full blood count Plt / Full blood count RCC / Full blood count WCC: PAR 1725 mg/kg oral alone, mean ± SD, n = 3
Sprague Dawley (SD) rats [2] = experiment: Liver function tests after single oral PAR overdose with or without GFJ or BGT; type: in vivo, rat; conditions: for Liver function tests ALP / Liver function tests ALT / Liver function tests AST: PAR 1725 mg/kg oral alone, mean ± SD, n = 5
[3] = PAR plasma concentration by HPLC; type: in vivo; conditions: Sprague Dawley, rat, oral, 1725 mg/kg
SD rats = experiment: Preliminary determination of the toxic dose of PAR; type: in vivo, rat; conditions: preliminary experiment
humans = conditions: stated without reference; cited from earlier work
[4] = tested on: P450 enzymes CYP1A2, CYP2C9, CYP2C19, CYP2D6 and CYP3A4; conditions: furanocoumarin dimers versus monomer; cited from earlier work
[5] = 48 h after dosing, listed as PAR only
[6] = 48 h after dosing, listed as PAR-only
[7] = PAR 1725 mg/kg single dose, 72 h, 3 rats
[8] = PAR 1822 mg/kg single dose, 72 h, 3 rats

## CC(C)=CCC/C(C)=C/COc1c2ccoc2cc2oc(=O)ccc12 [BGT, bergamottin]
Sprague Dawley (SD) rats [1]
  thrombocytopenia (low platelet count): moderate
Sprague Dawley (SD) rats [2]; co-administered orally with PAR 1725 mg/kg in rats
  PAR-induced hepatotoxicity after PAR overdose: prevented

## CC(=O)Nc1ccc(O)cc1 [PAR, paracetamol]
Sprague Dawley (SD) rats [1]; 24 h
  Full blood count Hb: 15.2 ± 0
  Full blood count Hct: 0.439 ± 0
  Full blood count MCH: 19.9 ± 0
  Full blood count MCHC: 34.5 ± 0
  Full blood count MCV: 57.6 ± 1
  Full blood count Plt: 1159 ± 81
  Full blood count RCC: 7.6 ± 0
  Full blood count WCC: 4.1 ± 1
Sprague Dawley (SD) rats [1]; 48 h
  Full blood count Hb: 15.3 ± 1
  Full blood count Hct: 0.464 ± 0
  Full blood count MCH: 20.4 ± 0
  Full blood count MCHC: 33.1 ± 0
  Full blood count MCV: 61.1 ± 1
  Full blood count Plt: 310 ± 305
  Full blood count RCC: 7.5 ± 0
  Full blood count WCC: 5.9 ± 0
Sprague Dawley (SD) rats [1]; 72 h
  Full blood count Hb: 13.6 ± 2
  Full blood count Hct: 0.406 ± 0
  Full blood count MCH: 19.8 ± 1
  Full blood count MCHC: 33.7 ± 1
  Full blood count MCV: 58.9 ± 4
  Full blood count Plt: 326 ± 293
  Full blood count RCC: 6.8 ± 1
  Full blood count WCC: 4.7 ± 1
Sprague Dawley (SD) rats [1]
  thrombocytopenia (low platelet count): thrombocytopenia
[3]
  concentration at 24 h: 5720 ng/mL
  concentration at 48 h: 4450 ng/mL
  concentration at 72 h: 2020 ng/mL
Sprague Dawley (SD) rats [2]; 24 h after dosing
  Liver function tests ALP: 319 ± 2.1 units/l
  Liver function tests ALT: 63 ± 41.3 units/l
  Liver function tests AST: 156 ± 76.2 units/l
Sprague Dawley (SD) rats [2]; 48 h after dosing
  Liver function tests ALP: 296 ± 148.5 units/l
Sprague Dawley (SD) rats [2]; [5]
  Liver function tests ALT: 837 ± 268 units/l
  Liver function tests AST: 1359 ± 405 units/l
Sprague Dawley (SD) rats [2]; [6]
  Liver function tests ALT: 837 ± 268.0 units/l
  Liver function tests AST: 1359 ± 404.5 units/l
Sprague Dawley (SD) rats [2]; 72 h after dosing
  Liver function tests ALP: 267 ± 38.9 units/l
  Liver function tests ALT: 419 ± 690.1 units/l
  Liver function tests AST: 512 ± 657.9 units/l
SD rats; PAR 1000 mg dose, 24, 48 and 72 h
  change in liver enzymes: no change
SD rats; [7]
  ALP: 260.0 ± 36
  AST: 512.0 ± 593
SD rats; [8]
  ALP: 223.7 ± 82
  ALT: 44.3 ± 3
  AST: 104.0 ± 14
humans
  hepatotoxic dose of PAR in humans: 100 mg/kg

## paradisine A
[4]
  enzyme inhibitor potency relative to 6-7-dihydroxybergamottin (DHB): over 20 times
  enzyme inhibitor potency relative to BGT (GF-I-2): over 100 times

## paradisine B
[4]
  enzyme inhibitor potency relative to 6-7-dihydroxybergamottin (DHB): over 20 times
  enzyme inhibitor potency relative to BGT (GF-I-2): over 100 times
